{"source": "patent US8507431B2", "about": "“Methods for accelerating wound healing by administration of a preadipocyte modulator or an adipocyte modulator” (HealOr Ltd., priority 2003, dated 2013)", "key": {"[1]": {"test_system": "Full thickness wounds on the back of C57BL mice", "test": "Wound healing assay, full thickness incision wounds in mice", "assay_type": "in vivo", "conditions": "for wound area compared with the buffer control (morphological analysis): topical daily for six days, insulin 10 nM, troglitazone 100 μM + insulin 10 nM; for wound area compared with the buffer control (morphological analysis) / epidermal migration vs PBS control (K14 staining) / wound contraction vs PBS control / dermal contraction (both dermal wound sides in a single field, H&E): adipsin 1 μM, GW9662 2 μM; for wound area compared with the buffer control (morphological analysis) / wound contraction vs PBS control: troglitazone 100 μM; for epidermal migration vs PBS control (K14 staining) / wound contraction vs PBS control / dermal contraction (both dermal wound sides in a single field, H&E): topical daily for 6 days; for dermal contraction (both dermal wound sides in a single field, H&E): control negative", "protocol": "[…] […] Wound biopsies were sampled, processed and analyzed morphologically and/or histochemically and/or immunohistochemically for various wound healing parameters, i.e., wound contraction, adipocytes migration and differentiation, epidermal migration, and epidermal closure.\nThe wound area was measured and compared to untreated control wounds; and wound contraction was calculated as the percent reduction of the wound area.\nWound biopsies were fixed in 4% paraformaldehyde then dehydrated in increasing concentrations of ethanol (50-100%). The dehydrated preparations were immersed first in xylene, then paraffin and xylene 1:1 solution, then in pure melted paraffin (60° C.). The paraffin blocks were then sectioned by a microtome and the sections were mounted on Super Frost^+™ slides.\nParaffin embedded wound-section slides were incubated at 60° C. for 60 minutes and were de-parafinated by washing the slides twice with toluene (100%) for 10 minutes, then rehydrated in decreasing concentration of ethanol (100-50%) for 5 minutes each. The slides were stained with hematoxylin (ready to use solution) for 10 minutes, rinsed with water, stained with eosin (0.5% in DDW) for 5 minutes, and then washed with 70% ethanol by 2 quick immersions. Thereafter, the slides were dehydrated by washing once with 95% ethanol for 2 minutes, twice with 100% ethanol for 5 minutes, and twice with xylene (100%) for 10 minutes, then mounted with entellan (MERCK Darmstadt Germany).\nParaffin embedded wound-section slides were de-parafinated as described for H&E staining above and incubated in blocking solution (5% BSA and 0.5% Tween 20™ in PBS) for 1 hour. The slides were then incubated with either anti-keratin 1 (1:500) or anti-keratin 14 (1:1000) antibody in blocking solution (5% BSA and 0.5% Tween 20™ in PBS) at 4° C. overnight. Thereafter, the slides were washed five times with washing buffer (5% Tween 20™ in PBS for K14 and 0.5% Tween 20™ in PBS for K1) followed by incubation with biotinilated goat anti-rabbit antibody (ZYMED Laboratories Inc.) suspended (1:200) in blocking solution (5% BSA and 0.5% Tween 20™ in PBS) for 1 hour at room temperature. The slides were then washed three times with washing buffer (5% Tween 20™ in PBS) followed by incubation with an enzyme streptavidin conjugate in blocking solution (1:300) for 1 hour at room temperature. Thereafter, the slides were washed twice with washing buffer (5% Tween 20™ in PBS) for 5 minutes, once with PBS for 5 minutes and once with TRIS buffer (0.05 M in PBS) for 5 minutes, followed by incubation in DAB reagent for color development. The reaction was terminated by immersing the slides in double distilled water followed by counterstaining with eosin (ICN, 0.5% in DDW). The slides were then washed with 70% ethanol by 2 quick immersions; dehydrated by washing once again with 95% ethanol for 2 minutes, twice with 100% ethanol for 5 minutes, and twice with xylene (100%) for 10 minutes; and mounted with entellan (MERCK Darmstadt Germany).\nThe effect of inhibiting or enhancing the activity of PPARγ using PPARγ antogonist and agonist, respectively, on wound healing was also evaluated in vivo. […]\nThe effect of adipsin (complementing Factor D, which is secreted from adipocytes) on wound healing was evaluated in vivo. […] The mice were sacrificed 6 days after wounding and the wounds were then analyzed. […] In addition, adipsin increased epidermal closure from about 15% to about 30%, and increased keratinocytes migration from about 30% to about 65%, as compared with the buffer control (FIG. 6).\nFull thickness 20 mm incision wounds were performed on 8-10 week old C57BL mice, 6 mice per group. The wounds were treated daily for 7 days with PBS (control), adiponectin (1 μg/ml) or visfatin (0.01 μg/ml). Skin biopsies were paraffin embedded and slide sections representing the widest area of the wound were prepared. Sections were then subjected to histochemical staining such as H&E and Masson Trichrome (collagen). […]"}, "primary keratinocytes": {"test_system": "primary keratinocytes", "test": "Keratinocytes migration (wound scratch) assay in vitro", "assay_type": "cell-based, murine", "conditions": "for keratinocyte migration in scratch assay vs control and insulin: treated daily, 24 and 48 hrs", "protocol": "Primary keratinocytes were isolated from newborn skin as described in reference 18. Keratinocytes were cultured in Eagle's Minimal Essential Medium (EMEM) containing 8% Chelex (Chelex-100, BioRad) treated fetal bovine serum. To maintain a proliferative basal cell phenotype, the final Ca^2+ concentration was adjusted to 0.05 mM. Experiments were performed five to seven days after plating.\nPrimary mouse keratinocytes were untreated or treated with, PPARγ antagonist GW9662 (μM) or PPARγ agonist troglitazone (μM). Wound Scratch Assay was performed 24 hours following treatment, and representative fields were photographed immediately after the wounding (Day 0) and 48 hours later (Day 2). The average of wound closure represented as percentage in comparison to the initial width of the wound scratch (% of wound closure).\nThe effect of inhibiting or enhancing the activity of peroxisome proliferators-activated receptor gamma (PPARγ) on keratinocytes migration was evaluated utilizing the in vitro migration assay. Thus, primary keratinocytes were isolated and plated on 5 ml non-coated dishes until confluence in low Ca^2+ medium, and an artificial crossover scratch was formed in each dish with a 200 μm tip. Cells were either non-treated (control) or treated daily with PPARγ modulators.\nIn order to test the effect of different adipokines on keratinocyte migration to close the wound gap, an in vitro scratch assay was used. Thus, primary keratinocytes were isolated and plated on 5 ml non-coated dishes until confluence in low Ca^2+ medium, and an artificial crossover scratch was formed in each dish with a 200 μm tip. Cells were either non-treated (control) or treated daily with insulin (0.1 unit/ml), hIL-4 (2 ng/ml), hIL-6 (0.2 ng/ml), leptin (4 μg/ml) or apelin (0.02 μg/ml or 0.2 μg/ml).\n(§1) Primary keratinocytes/fibroblasts were isolated and plated on 5 ml non-coated dishes until confluence in low Ca^2+ medium, and an artificial cross-over scratch was formed in each dish with a 200 μm tip. Then, cells were either non-treated or treated with visfatin (0.1 μg/ml or 0.0.1 μg/ml) or insulin (0.1 unit/ml) for up to 48 hrs."}, "primary skin fibroblasts": {"test_system": "primary skin fibroblasts", "test": "Fibroblasts scratch migration assay in vitro", "assay_type": "cell-based", "conditions": "24 hrs; hIL-8 5 ng/ml, hIL-1β 0.2 ng/ml, hIL-4 2 ng/ml, apelin 0.2 μg/ml, adiponectin 1 μg/ml", "protocol": "Primary skin fibroblasts were isolated and plated on 5 ml non-coated dishes until confluence in low Ca^2+ medium, and an artificial crossover scratch was formed in each dish with a 200 μm tip. Cells were either non-treated (control) or treated with insulin (0.1 unit/ml), hIL-8 (5 ng/ml), hIL-1β (0.2 ng/ml), hIL-4 (2 ng/ml), apelin (0.2 μg/ml) or adiponectin (1 μg/ml); and collected after 24 hrs.\nas §1"}, "[2]": {"conditions": "C57BL mice, insulin 1 μM topical daily for six days, untreated about 60%"}, "[3]": {"conditions": "hIL-6 0.2 ng/ml, leptin 4 μg/ml, apelin 0.02 μg/ml"}}, "note": "“Also recorded” adds a separate entry of the source."}
{"molecule": "insulin [reference compound]", "values": [{"measurement": "migrating keratinocytes observed across the wound gap, percent of wounds (K14 staining)", "setting": "[1]; [2]", "value": "about 90%"}, {"measurement": "recruited adipocytes present, percent of wounds (H&E staining)", "setting": "[1]; [2]", "value": "~80", "unit": "%"}, {"measurement": "wound area compared with the buffer control (morphological analysis)", "setting": "[1]", "value": "substantially smaller"}]}
{"molecule": "O=C(Nc1ccccc1)c1cc([N+](=O)[O-])ccc1Cl", "note": "[GW9662, 2-chloro-5-nitrobenzanilide, reference compound]", "values": [{"measurement": "epidermal migration vs PBS control (K14 staining)", "setting": "[1]", "value": "promoted; also recorded: migrating toward covering the wound gap"}, {"measurement": "wound contraction vs PBS control", "setting": "[1]", "value": "promoted wound contraction"}, {"measurement": "dermal contraction (both dermal wound sides in a single field, H&E)", "setting": "[1]", "value": "positive dermal contraction"}, {"measurement": "wound area compared with the buffer control (morphological analysis)", "setting": "[1]", "value": "substantially smaller"}, {"measurement": "keratinocytes migration in vitro vs untreated control", "setting": "primary keratinocytes; scratch with 200 μm tip, Day 2 (48 hours), GW9662 2 μM, troglitazone 100 μM", "value": "promoted keratinocytes migration"}]}
{"molecule": "IL-1: adipokine hIL-1β", "values": [{"measurement": "fibroblasts migration to close the wound gap vs non-treated and insulin", "setting": "primary skin fibroblasts", "value": "promoted fibroblasts migration to completely close the wound gap"}]}
{"molecule": "IL-8: adipokine hIL-8", "values": [{"measurement": "fibroblasts migration to close the wound gap vs non-treated and insulin", "setting": "primary skin fibroblasts", "value": "smaller yet significant effect"}]}
{"molecule": "adipsin", "values": [{"measurement": "epidermal closure, percent of wounds positive (K14)", "setting": "[1]; adipsin 1 μM topical daily, buffer control about 15%", "value": "about 30%"}, {"measurement": "keratinocytes migration, percent of wounds positive (K14)", "setting": "[1]; adipsin 1 μM topical daily, buffer control about 30%", "value": "about 65%"}, {"measurement": "epidermal migration vs PBS control (K14 staining)", "setting": "[1]", "value": "migrating toward covering the wound gap"}, {"measurement": "wound contraction vs PBS control", "setting": "[1]", "value": "substantially promoted wound contraction"}, {"measurement": "dermal contraction (both dermal wound sides in a single field, H&E)", "setting": "[1]", "value": "positive dermal contraction"}, {"measurement": "wound area compared with the buffer control (morphological analysis)", "setting": "[1]", "value": "substantially smaller"}, {"measurement": "keratinocytes migration in vitro (summary statement)", "setting": "primary keratinocytes; no concentration given", "value": "substantially accelerated keratinocytes migration in vitro"}]}
{"molecule": "IL-6: adipokine hIL-6", "values": [{"measurement": "keratinocyte migration in scratch assay vs control and insulin", "setting": "primary keratinocytes; [3]", "value": "not as significantly"}]}
{"molecule": "apelin", "values": [{"measurement": "keratinocyte migration in scratch assay vs control and insulin", "setting": "primary keratinocytes; hIL-4 2 ng/ml, apelin 0.2 μg/ml", "value": "keratinocyte migration was highly significant"}, {"measurement": "keratinocyte migration in scratch assay vs control and insulin", "setting": "primary keratinocytes; [3]", "value": "not as significantly"}, {"measurement": "fibroblasts migration to close the wound gap vs non-treated and insulin", "setting": "primary skin fibroblasts", "value": "promoted fibroblasts migration to completely close the wound gap"}]}
{"molecule": "leptin", "values": [{"measurement": "keratinocyte migration in scratch assay vs control and insulin", "setting": "primary keratinocytes; [3]", "value": "not as significantly"}]}
